The values below come from PubChem BioAssay AID256 (DTP/NCI, 2004).

Toxic doses and inconclusive results are not listed.

This experiment relates to CD2F1 mice, L1210 leukemia ip, survival T/C. The experiment can be described thus: NCI In Vivo Anticancer Drug Screen. Data for tumor model L1210 Leukemia (intraperitoneal) in CD2F1 (CDF1) mice. Conditions: higher = longer survival. In outline: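 Compound-dosed mice with transplantable tumor versus matched vehicle controls; endpoint ratio T/C reported.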
Where [1] appears, read: endpoint: mean survival time, dose: 100.0 mg/kg/injection, schedule: Q01DX009 (ip), vehicle: saline with Tween-80.
[2] abbreviates: endpoint: mean survival time, dose: 100.0 mg/kg/injection, schedule: Q04DX003 (ip), vehicle: saline with Tween-80.
Setting [3] is: endpoint: mean survival time, dose: 200.0 mg/kg/injection, schedule: Q01DX009 (ip), vehicle: saline with Tween-80.
Where [4] appears, read: endpoint: mean survival time, dose: 200.0 mg/kg/injection, schedule: Q04DX003 (ip), vehicle: saline with Tween-80.
Where [5] appears, read: endpoint: mean survival time, dose: 400.0 mg/kg/injection, schedule: Q01DX009 (ip), vehicle: saline with Tween-80.
Setting [6] is: endpoint: mean survival time, dose: 400.0 mg/kg/injection, schedule: Q04DX003 (ip), vehicle: saline with Tween-80.
Setting [7] is: endpoint: mean survival time, dose: 25.0 mg/kg/injection, schedule: Q04DX002 (ip), vehicle: saline with Tween-80.
Setting [8] is: endpoint: mean survival time, dose: 100.0 mg/kg/injection, schedule: Q04DX002 (ip), vehicle: saline with Tween-80.
Where [9] appears, read: endpoint: mean survival time, dose: 200.0 mg/kg/injection, schedule: Q04DX002 (ip), vehicle: saline with Tween-80.

Regarding `O=C(c1ccc(Cl)cc1)c1no[n+]([O-])c1C(=O)c1ccc(Cl)cc1`, the T/C is 94 % of control under setting [1]; 107 % of control under setting [2]; 100 % of control under setting [3]; 95 % of control under setting [4]; 94 % of control under setting [5]; 95 % of control under setting [6].

Consider `O=C1c2ccccc2CCC12OC2c1ccc(Cl)cc1` (stereo not given), for which the T/C runs as follows: (endpoint: mean survival time, dose: 50.0 mg/kg/injection, schedule: Q04DX003 (ip), vehicle: saline) 106 % of control; (endpoint: mean survival time, dose: 100.0 mg/kg/injection, schedule: Q04DX003 (ip), vehicle: saline) 101 % of control; (endpoint: mean survival time, dose: 200.0 mg/kg/injection, schedule: Q04DX003 (ip), vehicle: saline) 101 % of control; (endpoint: mean survival time, dose: 400.0 mg/kg/injection, schedule: Q04DX003 (ip), vehicle: saline) 98 % of control.

Take `C/C(=N/Nc1ccc([N+](=O)[O-])cc1[N+](=O)[O-])C(C)C`: the T/C (endpoint: mean survival time, dose: 75.0 mg/kg/injection, schedule: Q04DX002 (ip), vehicle: saline with Tween-80) was 95 % of control; the T/C (endpoint: mean survival time, dose: 150.0 mg/kg/injection, schedule: Q04DX002 (ip), vehicle: saline with Tween-80) is 98 % of control; the T/C (endpoint: mean survival time, dose: 300.0 mg/kg/injection, schedule: Q04DX002 (ip), vehicle: saline with Tween-80) was 98 % of control.

Consider `CCCC(=O)Nc1ccc(S(=O)(=O)Nc2ccc(S(=O)(=O)N3CCOCC3)cc2)cc1`, for which the T/C is 103 % of control (endpoint: mean survival time, dose: 100.0 mg/kg/injection, schedule: Q01DX001 (ip), vehicle: saline with Tween-80); 92 % of control (endpoint: mean survival time, dose: 200.0 mg/kg/injection, schedule: Q01DX001 (ip), vehicle: saline with Tween-80); 94 % of control (endpoint: mean survival time, dose: 400.0 mg/kg/injection, schedule: Q01DX001 (ip), vehicle: saline with Tween-80).

In the case of `CC1OC(C)(C)OC1C(=O)O` (stereo not given), the T/C by setting is: (endpoint: mean survival time, dose: 25.0 mg/kg/injection, schedule: Q01DX009 (ip), vehicle: Klucel (hydroxypropylcellulose) (HPC)) 92 % of control; (endpoint: mean survival time, dose: 50.0 mg/kg/injection, schedule: Q01DX009 (ip), vehicle: Klucel (hydroxypropylcellulose) (HPC)) 86 % of control.

As to `COc1cccc(/C=N/C(=S)NC2(C)C3CCC(C3)C2(C)C)c1O` (stereo not given), the T/C reads like this: (endpoint: mean survival time, dose: 12.5 mg/kg/injection, schedule: Q01DX009 (ip), vehicle: olive oil, sesame oil, peanut oil) 98 % of control; (endpoint: mean survival time, dose: 25.0 mg/kg/injection, schedule: Q01DX009 (ip), vehicle: olive oil, sesame oil, peanut oil) 96 % of control; (endpoint: mean survival time, dose: 50.0 mg/kg/injection, schedule: Q01DX009 (ip), vehicle: olive oil, sesame oil, peanut oil) 90 % of control; (endpoint: mean survival time, dose: 100.0 mg/kg/injection, schedule: Q01DX009 (ip), vehicle: olive oil, sesame oil, peanut oil) 97 % of control; (endpoint: mean survival time, dose: 200.0 mg/kg/injection, schedule: Q01DX009 (ip), vehicle: olive oil, sesame oil, peanut oil) 96 % of control; (endpoint: mean survival time, dose: 400.0 mg/kg/injection, schedule: Q01DX009 (ip), vehicle: olive oil, sesame oil, peanut oil) 90 % of control.

Turning to `CC(=O)Nc1ccc(/C=N/NC(=O)COc2ccccc2)cc1`, the T/C is, setting by setting: under setting [1], 97 % of control; under setting [3], 94 % of control; under setting [5], 94 % of control.

Turning to `COc1cc2c(c(OC)c1OC)-c1ccc(OC)c(=O)cc1[C@@H](N)CC2`, the T/C (endpoint: median survival time, dose: 1.5 mg/kg/injection, schedule: Q01DX009 (ip), vehicle: saline) is 120 % of control.

For `Nc1ccn(C2OC(COC(=O)C34CC5CC(CC(C5)C3)C4)C(O)C2O)c(=O)n1` (stereo not given), the T/C reads like this: (endpoint: mean survival time, dose: 12.5 mg/kg/injection, schedule: Q01DX009 (ip), vehicle: other) 201 % of control; (endpoint: mean survival time, dose: 25.0 mg/kg/injection, schedule: Q01DX009 (ip), vehicle: other) 282 % of control; (endpoint: mean survival time, dose: 50.0 mg/kg/injection, schedule: Q01DX009 (ip), vehicle: other) 365 % of control; (endpoint: mean survival time, dose: 100.0 mg/kg/injection, schedule: Q01DX009 (ip), vehicle: other) 253 % of control.

For `CSc1nc(NC2OCC(O)C(O)C2O)c(I)c(=O)[nH]1` (stereo not given), the T/C is 100 % of control (endpoint: median survival time, dose: 12.5 mg/kg/injection, schedule: Q01DX005 (ip), vehicle: saline with Tween-80); 100 % of control (endpoint: median survival time, dose: 25.0 mg/kg/injection, schedule: Q01DX005 (ip), vehicle: saline with Tween-80); 103 % of control (endpoint: median survival time, dose: 50.0 mg/kg/injection, schedule: Q01DX005 (ip), vehicle: saline with Tween-80); 107 % of control (endpoint: median survival time, dose: 100.0 mg/kg/injection, schedule: Q01DX005 (ip), vehicle: saline with Tween-80); 107 % of control (endpoint: median survival time, dose: 200.0 mg/kg/injection, schedule: Q01DX005 (ip), vehicle: saline with Tween-80).

As for `CCC1CCCCN1C(=S)N/N=C(\C)c1ccccn1` (stereo not given), the T/C reads like this: (endpoint: median survival time, dose: 6.25 mg/kg/injection, schedule: Q01DX009 (ip), vehicle: saline with Tween-80) 101 % of control; (endpoint: median survival time, dose: 12.5 mg/kg/injection, schedule: Q01DX009 (ip), vehicle: saline with Tween-80) 108 % of control; (endpoint: median survival time, dose: 25.0 mg/kg/injection, schedule: Q01DX009 (ip), vehicle: saline with Tween-80) 86 % of control.

Regarding `CCN=C(N)C(N)=NCC`, the T/C is 100 % of control under setting [7]; 96 % of control (endpoint: mean survival time, dose: 50.0 mg/kg/injection, schedule: Q04DX002 (ip), vehicle: saline with Tween-80); 100 % of control under setting [8]; 100 % of control under setting [9].

As to `NC(=O)NC(=O)c1cccc([N+](=O)[O-])c1`, the T/C is 104 % of control under setting [1], 97 % of control under setting [2], 97 % of control under setting [3] and 94 % of control under setting [4].

With `COc1ccc(C(=O)C(O)c2ccccc2)cc1` (stereo not given), the T/C is, setting by setting: (endpoint: mean survival time, dose: 100.0 mg/kg/injection, schedule: Q04DX003 (ip), vehicle: other) 97 % of control; (endpoint: mean survival time, dose: 200.0 mg/kg/injection, schedule: Q04DX003 (ip), vehicle: other) 92 % of control; (endpoint: mean survival time, dose: 400.0 mg/kg/injection, schedule: Q04DX003 (ip), vehicle: other) 92 % of control.

Regarding `Brc1ccc(-c2csc3cccc[n+]23)cc1`, the T/C was 93 % of control (endpoint: mean survival time, dose: 5.0 mg/kg/injection, schedule: Q04DX003 (ip), vehicle: saline with Tween-80); 104 % of control (endpoint: mean survival time, dose: 10.0 mg/kg/injection, schedule: Q04DX003 (ip), vehicle: saline with Tween-80); 93 % of control (endpoint: mean survival time, dose: 20.0 mg/kg/injection, schedule: Q04DX003 (ip), vehicle: saline with Tween-80).

Consider `Cc1[nH]c(=O)[nH]c(=O)c1-n1nnc2ccccc2c1=O`, for which the T/C is 97 % of control under setting [2], 97 % of control under setting [4] and 95 % of control under setting [6].

On to `CC(O)CC(C)(C)S(=O)(=O)Cc1ccccc1` (stereo not given), for which the T/C reads like this: (endpoint: mean survival time, dose: 100.0 mg/kg/injection, schedule: Q01DX001 (ip), vehicle: Klucel (hydroxypropylcellulose) (HPC)) 101 % of control; (endpoint: mean survival time, dose: 200.0 mg/kg/injection, schedule: Q01DX001 (ip), vehicle: Klucel (hydroxypropylcellulose) (HPC)) 86 % of control; (endpoint: mean survival time, dose: 400.0 mg/kg/injection, schedule: Q01DX001 (ip), vehicle: Klucel (hydroxypropylcellulose) (HPC)) 93 % of control.

With `N#C[Se-].c1ccc([Te+](c2ccccc2)c2ccccc2)cc1`, the T/C runs as follows: (endpoint: median survival time, dose: 1.56 mg/kg/injection, schedule: Q01DX009 (ip), vehicle: Klucel (hydroxypropylcellulose) (HPC)) 109 % of control; (endpoint: median survival time, dose: 3.12 mg/kg/injection, schedule: Q01DX009 (ip), vehicle: Klucel (hydroxypropylcellulose) (HPC)) 104 % of control; (endpoint: median survival time, dose: 6.25 mg/kg/injection, schedule: Q01DX009 (ip), vehicle: Klucel (hydroxypropylcellulose) (HPC)) 105 % of control; (endpoint: median survival time, dose: 12.5 mg/kg/injection, schedule: Q01DX009 (ip), vehicle: Klucel (hydroxypropylcellulose) (HPC)) 103 % of control.

With `CCCCNCC(C)C(=O)OC` (stereo not given), the T/C reads like this: under setting [2], 98 % of control; under setting [4], 98 % of control; under setting [6], 102 % of control.

In the case of `N#Cc1cccc(CN2CCCNCC2)c1`, the T/C by setting is: (endpoint: mean survival time, dose: 12.5 mg/kg/injection, schedule: Q01DX009 (ip), vehicle: water) 98 % of control; (endpoint: mean survival time, dose: 25.0 mg/kg/injection, schedule: Q01DX009 (ip), vehicle: water) 100 % of control; (endpoint: mean survival time, dose: 50.0 mg/kg/injection, schedule: Q01DX009 (ip), vehicle: water) 96 % of control; (endpoint: mean survival time, dose: 100.0 mg/kg/injection, schedule: Q01DX009 (ip), vehicle: water) 105 % of control.

In the case of `CC(=O)NC(C)(NC(=O)CCl)C(=O)O` (stereo not given), the T/C under setting [8] was 100 % of control; the T/C under setting [9] was 96 % of control; the T/C (endpoint: mean survival time, dose: 400.0 mg/kg/injection, schedule: Q04DX002 (ip), vehicle: saline with Tween-80) was 93 % of control.

Take `c1ccc(C[As+](c2ccccc2)(c2ccccc2)c2ccccc2)cc1`: the T/C under setting [7] is 96 % of control.
